# Laboratory results from US10253002B2, “Compounds and methods of treating infections” (Neoculi Pty Ltd., priority 2013, dated 2019).
# Where “and” joins values, the source holds several entries; their conditions need not be identical. Equal values may be shown once.
# Columns and labels:
# [1] = test system: non-VRE Enterococcus faecalis USA01; experiment: MBC (CLSI methodology), Example 8; format: cell-based; settings: for NCL812 MBC test, growth on Sheep Blood Agar / Number of Bacteria Growing after 24 hours per ml of sample: E. faecalis (USA01)
# [2] = test system: VRE isolates; experiment: MBC (CLSI methodology), Example 7; format: cell-based, Enterococcus spp.; parameters: key: M = many bacteria growing on the plate (too many to count)
# [3] = test system: ATP release from S. aureus ATCC 29213; experiment: ATP release assay (CellTiter-Glo); format: cell-based, Staphylococcus aureus; settings: at the MIC ([…] μg/ml); 30 min exposure
# Description: The CellTiter-Glo Luminescent Cell Viability Assay (Promega) was utilized to measure the leakage of ATP from bacteria. […] The negative control received 2% DMSO, which represented the final DMSO concentration in each assay. After a 30 min exposure to drug, cells were sedimented by centrifugation and the supernatant was analyzed for the presence of ATP. Results were expressed as ATP concentration released to the medium (μM).
# [4] = test system: non-MRSA S. aureus MK01 and KC01; experiment: MBC (CLSI methodology), Example 8; format: cell-based, Staphylococcus aureus
smiles,measurement,setting,value
"N=C(N/N=C/c1ccc(Cl)cc1)N/N=C/c1ccc(Cl)cc1 [NCL812, 1,3-bis[(E)-(4-chlorophenyl)methyleneamino]guanidine]","NCL812 MBC test, growth on Sheep Blood Agar",[1]; 4 μg/ml,+
same,Number of Bacteria Growing after 24 hours per ml of sample,[1]; 4 μg/ml,488 CFU/ml
same,"NCL812 MBC test, growth on Sheep Blood Agar",[1]; 8 μg/ml,+
same,"NCL812 MBC test, growth on Sheep Blood Agar",[1]; 16 μg/ml,+
same,"NCL812 MBC test, growth on Sheep Blood Agar",[1]; 32 μg/ml,+
same,Number of Bacteria Growing after 24 hours per ml of sample,[1]; 32 μg/ml,7 CFU/ml
same,"NCL812 MBC test, growth on Sheep Blood Agar",[1]; 64 μg/ml,+
same,Number of Bacteria Growing after 24 hours per ml of sample,[1]; 64 μg/ml,1 CFU/ml
same,"NCL812 MBC test, growth on Sheep Blood Agar",[1]; […],+
same,MBC test outcome,[1]; E. faecalis USA01,growth of bacteria was observed at all concentrations of NCL812 tested
same,NCL812 MBC: number of bacteria growing after 24 hours per ml of sample,"[2]; VRE 12c, NCL812 2 μg/ml",0 CFU/ml
same,NCL812 MBC: number of bacteria growing after 24 hours per ml of sample,"[2]; VRE 12c, NCL812 16 μg/ml",M
same,NCL812 MBC: number of bacteria growing after 24 hours per ml of sample,"[2]; VRE 12c, NCL812 32 μg/ml",M
same,NCL812 MBC: number of bacteria growing after 24 hours per ml of sample,"[2]; VRE 12c, NCL812 64 μg/ml",M
same,NCL812 MBC: number of bacteria growing after 24 hours per ml of sample,"[2]; VRE 12c, NCL812 […]",M
same,NCL812 MBC: number of bacteria growing after 24 hours per ml of sample,"[2]; VRE 14t, NCL812 4 μg/ml",0 CFU/ml
same,NCL812 MBC: number of bacteria growing after 24 hours per ml of sample,"[2]; VRE 14t, NCL812 […]",M
same,NCL812 MBC: number of bacteria growing after 24 hours per ml of sample,"[2]; VRE 16c(dc), NCL812 16 μg/ml",M
same,NCL812 MBC: number of bacteria growing after 24 hours per ml of sample,"[2]; VRE 16c(dc), NCL812 32 μg/ml",M
same,NCL812 MBC: number of bacteria growing after 24 hours per ml of sample,"[2]; VRE 16c(dc), NCL812 64 μg/ml",M
same,NCL812 MBC: number of bacteria growing after 24 hours per ml of sample,"[2]; VRE 16c(dc), NCL812 […]",M
same,NCL812 MBC: number of bacteria growing after 24 hours per ml of sample,"[2]; VRE 16c, NCL812 4 μg/ml",820 CFU/ml and 790 CFU/ml
same,NCL812 MBC: number of bacteria growing after 24 hours per ml of sample,"[2]; VRE 16c, NCL812 8 μg/ml",980 CFU/ml and 890 CFU/ml
same,NCL812 MBC: number of bacteria growing after 24 hours per ml of sample,"[2]; VRE 16c, NCL812 16 μg/ml",M
same,NCL812 MBC: number of bacteria growing after 24 hours per ml of sample,"[2]; VRE 16c, NCL812 32 μg/ml",M
same,NCL812 MBC: number of bacteria growing after 24 hours per ml of sample,"[2]; VRE 16c, NCL812 64 μg/ml",M
same,NCL812 MBC: number of bacteria growing after 24 hours per ml of sample,"[2]; VRE 16c, NCL812 […]",M
same,NCL812 MBC: number of bacteria growing after 24 hours per ml of sample,"[2]; VRE 19t, NCL812 4 μg/ml",0 CFU/ml
same,NCL812 MBC: number of bacteria growing after 24 hours per ml of sample,"[2]; VRE 19t, NCL812 8 μg/ml",0 CFU/ml
same,NCL812 MBC: number of bacteria growing after 24 hours per ml of sample,"[2]; VRE 19t, NCL812 […]",M
same,NCL812 MBC: number of bacteria growing after 24 hours per ml of sample,"[2]; VRE 23c, NCL812 2 μg/ml",0 CFU/ml
same,NCL812 MBC: number of bacteria growing after 24 hours per ml of sample,"[2]; VRE 23c, NCL812 64 μg/ml",M
same,NCL812 MBC: number of bacteria growing after 24 hours per ml of sample,"[2]; VRE 23c, NCL812 […]",M
same,NCL812 MBC: number of bacteria growing after 24 hours per ml of sample,"[2]; VRE 25c, NCL812 8 μg/ml",M
same,NCL812 MBC: number of bacteria growing after 24 hours per ml of sample,"[2]; VRE 25c, NCL812 16 μg/ml",M
same,NCL812 MBC: number of bacteria growing after 24 hours per ml of sample,"[2]; VRE 25c, NCL812 32 μg/ml",M
same,NCL812 MBC: number of bacteria growing after 24 hours per ml of sample,"[2]; VRE 25c, NCL812 64 μg/ml",M
same,NCL812 MBC: number of bacteria growing after 24 hours per ml of sample,"[2]; VRE 25c, NCL812 […]",M
same,NCL812 MBC: number of bacteria growing after 24 hours per ml of sample,"[2]; VRE 26c(dc), NCL812 8 μg/ml",4000 CFU/ml and 3500 CFU/ml
same,NCL812 MBC: number of bacteria growing after 24 hours per ml of sample,"[2]; VRE 26c(dc), NCL812 16 μg/ml",M
same,NCL812 MBC: number of bacteria growing after 24 hours per ml of sample,"[2]; VRE 26c(dc), NCL812 32 μg/ml",M
same,NCL812 MBC: number of bacteria growing after 24 hours per ml of sample,"[2]; VRE 26c(dc), NCL812 64 μg/ml",M
same,NCL812 MBC: number of bacteria growing after 24 hours per ml of sample,"[2]; VRE 26c(dc), NCL812 […]",M
same,NCL812 MBC: number of bacteria growing after 24 hours per ml of sample,"[2]; VRE 35t, NCL812 2 μg/ml",0 CFU/ml
same,NCL812 MBC: number of bacteria growing after 24 hours per ml of sample,"[2]; VRE 35t, NCL812 4 μg/ml",0 CFU/ml
same,NCL812 MBC: number of bacteria growing after 24 hours per ml of sample,"[2]; VRE 35t, NCL812 8 μg/ml",0 CFU/ml
same,NCL812 MBC: number of bacteria growing after 24 hours per ml of sample,"[2]; VRE 37c, NCL812 4 μg/ml",100 CFU/ml and 50 CFU/ml
same,NCL812 MBC: number of bacteria growing after 24 hours per ml of sample,"[2]; VRE 37c, NCL812 64 μg/ml",M
same,NCL812 MBC: number of bacteria growing after 24 hours per ml of sample,"[2]; VRE 37c, NCL812 […]",M
same,maximal ATP release,[3],0.33 µM
same,"NCL812 MBC test, growth on Sheep Blood Agar","[4]; S. aureus (KC01), 2 μg/ml",+
same,"NCL812 MBC test, growth on Sheep Blood Agar","[4]; S. aureus (KC01), 4 μg/ml",+ and 0
same,"NCL812 MBC test, growth on Sheep Blood Agar","[4]; S. aureus (KC01), 8 μg/ml",+ and 0
same,"NCL812 MBC test, growth on Sheep Blood Agar","[4]; S. aureus (KC01), 16 μg/ml",0
same,"NCL812 MBC test, growth on Sheep Blood Agar","[4]; S. aureus (KC01), 32 μg/ml",0
same,"NCL812 MBC test, growth on Sheep Blood Agar","[4]; S. aureus (KC01), 64 μg/ml",0
same,"NCL812 MBC test, growth on Sheep Blood Agar","[4]; S. aureus (KC01), […]",0
same,"NCL812 MBC test, growth on Sheep Blood Agar","[4]; S. aureus (MK01), 2 μg/ml",0
same,Number of Bacteria Growing after 24 hours per ml of sample,"[4]; S. aureus (MK01), 2 μg/ml",5 CFU/ml
same,"NCL812 MBC test, growth on Sheep Blood Agar","[4]; S. aureus (MK01), 4 μg/ml",0
same,"NCL812 MBC test, growth on Sheep Blood Agar","[4]; S. aureus (MK01), 8 μg/ml",0
same,"NCL812 MBC test, growth on Sheep Blood Agar","[4]; S. aureus (MK01), 16 μg/ml",0 (N) and 0
same,"NCL812 MBC test, growth on Sheep Blood Agar","[4]; S. aureus (MK01), 32 μg/ml",0 (N) and 0
same,"NCL812 MBC test, growth on Sheep Blood Agar","[4]; S. aureus (MK01), 64 μg/ml",0 (N) and 0
same,MBC test outcome,"[4]; S. aureus MK01 and KC01, no growth, or growth only at 2 μg/ml",bactericidal
